Reference: ChEMBL document CHEMBL3045631, “Anticandidiasis agents from a Tanzanian plant, Combretum zeyheri” (2013)
Converted amounts (≈) assume the structure as drawn.

How the values were obtained:
Type in all cases: functional
Candida albicans [1] = test: Antifungal activity against Candida albicans clinical isolate by two-fold serial microdilution method
Candida albicans [2] = test: Antifungal activity against Candida albicans MTCC 1637 by two-fold serial microdilution method
Candida albicans [3] = test: Antifungal activity against Candida albicans ATCC 90028 by two-fold serial microdilution method

| MIC (Candida albicans [1]) | MIC (Candida albicans [2]) | MIC (Candida albicans [3]) | Compound |
| --- | --- | --- | --- |
| > 250 µg/mL | > 250 µg/mL | > 250 µg/mL | CC1(C)CC[C@]2(C(=O)O)CC[C@]3(C)C(=CC[C@@H]4[C@@]5(C)C[C@@H](O)[C@H](O)C(C)(C)[C@@H]5[C@H](O)C[C@]43C)[C@@H]2C1 [6-beta-hydroxymaslinic acid] |
| 0.39 µg/mL (≈ 1.13 µM) | 0.39 µg/mL (≈ 1.13 µM) | 0.78 µg/mL (≈ 2.26 µM) | Clc1ccccc1C(c1ccccc1)(c1ccccc1)n1ccnc1 [CLOTRIMAZOLE] |
| 125 µg/mL (≈ 248 µM) | 125 µg/mL (≈ 248 µM) | 62.5 µg/mL (≈ 124 µM) | CC1(C)CC[C@]2(C(=O)O)CC[C@]3(C)C(=CC[C@@H]4[C@@]5(C)C[C@@H](O)[C@H](O)[C@@](C)(CO)[C@@H]5[C@H](O)C[C@]43C)[C@@H]2C1 [TERMINOLIC ACID] |

| Compound | MIC (Candida albicans [1]) | MIC (Candida albicans [2]) | MIC (Candida albicans [3]) |
| --- | --- | --- | --- |
| C[C@@H]1[C@H](O)[C@@H](C)/C=C/C=C/C=C/C=C/C=C/C=C/C=C/[C@H](O[C@@H]2O[C@H](C)[C@@H](O)[C@H](N)[C@@H]2O)C[C@@H]2O[C@](O)(C[C@@H](O)C[C@@H](O)[C@H](O)CC[C@@H](O)C[C@@H](O)CC(=O)O[C@H]1C)C[C@H](O)[C@H]2C(=O)O [AMPHOTERICIN B] | 6.25 µg/mL (≈ 6.76 µM) | 3.13 µg/mL (≈ 3.39 µM) | 3.13 µg/mL (≈ 3.39 µM) |
